Data reported in patent publication US8399487B2, “Pyrazole compounds and uses thereof” (Dart NeuroScience (Cayman) Ltd., priority 2006, dated 2013).
“Also recorded” adds a separate entry of the source.

Test system: contextual memory in C57BL/6 male mice
Assay: Contextual Memory Assay: Fear Conditioning
Type: in vivo
Details: I.P. 0.01 mg/kg, injected 20 minutes before training, 2 training trials, tested 24 hours after training (FIG. 1)
Description: The ability of a compound to modulate cognitive behavior can be evaluated using the following assay to measure memory after contextual fear conditioning.
Contextual Memory Assay: Fear Conditioning
Contextual memory is a form of Pavlovian fear conditioning in which a naïve mouse is placed into a novel chamber (context) containing distinct visual, olfactory and tactile cues. After a couple of minutes of acclimation, the mouse receives a brief, mild electric shock to its feet. From this negative experience, the mouse will remember for months that that chamber is dangerous. When placed back into the same context at some later time after training, the mouse's natural response to danger is to “freeze,” sitting stone still for many seconds. This is similar to what happens to humans when they experience fear. The percent of time during an observation period that the mouse spends frozen represents a quantitative measure (memory score) of its memory of the context. […]
To assess contextual memory, a modified contextual fear conditioning task originally developed for evaluation of memory in CREB knock-out mice was used (Bourtchouladze, R., et. al., Cell, 1994, 79, 59-68). […] 24 hours after training, the mouse was placed into the same training chamber and contextual memory was assessed by scoring freezing behavior (‘freezing’ serves as memory score). […]

## CN(C)C(=O)c1ccc(-c2cc(C(F)(F)F)n(C)n2)s1 [Compound 162, 5-(1-Methyl-5-trifluoromethyl-1H-pyrazol-3-yl)-thiophene-2-carboxylic acid dimethylamide]
  contextual memory (freezing to context 24 hr after training): significantly enhanced contextual memory; also recorded: significantly facilitated freezing to context

## Cn1nc(-c2ccc(C(=O)N3CCCCC3)s2)cc1C(F)(F)F [Compound 177, [5-(1-Methyl-5-trifluoromethyl-1H-pyrazol-3-yl)-thiophen-2-yl]-piperidin-1-yl-methanone]
  contextual memory (freezing to context 24 hr after training): significantly enhanced contextual memory; also recorded: significantly facilitated freezing to context
